From PMC10599993, “The PTPN2/PTPN1 inhibitor ABBV-CLS-484 unleashes potent anti-tumour immunity” (Nature, 2023) come the findings set out here.

For test [1], the target named is EGFR (Homo sapiens, UniProt P00533). Briefly: biochemical. The arrangement: Kinase selectivity panel, IC50 of AC484 (Supplementary Table 1). The method, then:
(§1) Wide-range phosphatase, kinase and preclinical safety pharmacology off-target activity screens were conducted at Eurofins (Extended Data Table 5 and Supplementary Tables 1 and 2). A small phosphatase panel was developed at AbbVie to assess IC50 values on select phosphatases. The following enzymes used in the phosphatase selectivity panel were purchased from Eurofins: PTPN1 (PTP1B; 14–621), PTPN2 (TC-PTP; 14–646), PTPN9 (14–592), SHP1 (14–591) and SHP2 (14–622). The catalytic activity of the phosphatase was monitored using the small-molecule substrate DiFMUP (ThermoFisher) in a fluorescence assay format. In brief, the phosphatase reactions were performed at room temperature in the following assay buffer: 50 mM HEPES, pH 7.2, 100 mM NaCl, 1 mM EDTA, 0.005% Tween-20 and 5 mM TCEP. Each phosphatase was incubated with increasing concentrations of AC484 for 5 min, after which the substrate DiFMUP was added and incubated at 25 °C for 30 min. The final concentration of the enzyme and substrate was maintained at 0.5 nM and 5 μM, respectively, in all the assays. The reaction was then quenched by the addition of a 100 μM solution of bpV(Phen) (Enzo Life Sciences). The fluorescence signal was monitored using an Envision microplate reader (Perkin-Elmer) using excitation and emission wavelengths of 340 nm and 450 nm, respectively. The dose–response curves for the inhibitors were analysed using normalized IC50 regression curve fitting with control-based normalization. Supplementary file 41586_2023_6575_MOESM3_ESM.xlsx: Supplementary Table 1 AC484 kinase selectivity screen.

For test [2], the target named is Flt1 (Homo sapiens, UniProt P17948). Briefly: biochemical. The arrangement: Kinase selectivity panel, IC50 of AC484 (Supplementary Table 1). Here is the method:
as §1

Test [3] deals with Wee1 (Homo sapiens, UniProt P30291). Briefly: biochemical. Also on record: Kinase selectivity panel, IC50 of AC484 (Supplementary Table 1). The method, then: as §1
Test [4] addresses STK33 (Homo sapiens, UniProt Q9BYT3). Nature of the test: biochemical. Also on record: Kinase selectivity panel, IC50 of AC484 (Supplementary Table 1). Here is the method: as §1
Test [5] has as its target LTK (Homo sapiens, UniProt P29376). Briefly: biochemical. Also on record: Kinase selectivity panel, IC50 of AC484 (Supplementary Table 1). Here is the method:
as §1

Test [6] addresses SIK1 (Homo sapiens, UniProt P57059). Nature of the test: biochemical. Also on record: Kinase selectivity panel, IC50 of AC484 (Supplementary Table 1). The method, then:
as §1

The target of test [7] is T1, Prkcn (Homo sapiens, UniProt O94806).
T1 construct: gene PRKD3
Nature of the test: biochemical. The arrangement: Kinase selectivity panel, IC50 of AC484 (Supplementary Table 1). Here is the method:
as §1

Test [8] deals with T2, Abl (Homo sapiens, UniProt P00519).
T2 construct: gene ABL1
Nature of the test: biochemical. Also on record: Kinase selectivity panel, IC50 of AC484 (Supplementary Table 1). Here is the method: as §1

In test [9] the target is Gsk3b (Homo sapiens, UniProt P49841). Briefly: biochemical. Also on record: Kinase selectivity panel, IC50 of AC484 (Supplementary Table 1). The method, then: as §1
Test [10] has as its target T3, PTPN2 (Homo sapiens, UniProt P17706).
T3 construct: Met1–Asn314, C-terminal 8× histidine tag (crystal); full-length recombinant (IC50)
Nature of the test: X-ray crystal structure (soak); mobility shift enzyme assay IC50. Type of test: biochemical. The source says:
X-ray crystal structure (soak); mobility shift enzyme assay IC50 on PTPN2 | The crystal structure of the PTPN2 protein with AC484 confirmed the formation of several crucial interactions in the active site

The target of test [11] is Blk (Homo sapiens, UniProt P51451). Nature of the test: biochemical. Also on record: Kinase selectivity panel, IC50 of AC484 (Supplementary Table 1).
Test [12] deals with T4, Erk2 (Homo sapiens, UniProt P28482).
T4 construct: gene MAPK1
Briefly: biochemical. Also on record: Kinase selectivity panel, IC50 of AC484 (Supplementary Table 1).

Test [13] has as its target ErbB4 (Homo sapiens, UniProt Q15303). Briefly: biochemical. Also on record: Kinase selectivity panel, IC50 of AC484 (Supplementary Table 1).
Test [14] addresses TBK1 (Homo sapiens, UniProt Q9UHD2). Nature of the test: biochemical. Also on record: Kinase selectivity panel, IC50 of AC484 (Supplementary Table 1).
The target of test [15] is CAMK2A (Homo sapiens, UniProt Q9UQM7). Nature of the test: biochemical. Also on record: Kinase selectivity panel, IC50 of AC484 (Supplementary Table 1).
Test [16] has as its target Rock1 (Homo sapiens, UniProt Q13464). Briefly: biochemical. Also on record: Kinase selectivity panel, IC50 of AC484 (Supplementary Table 1).
In test [17] the target is CDK8/Cyclin C (Homo sapiens, UniProt P49336). Briefly: biochemical. Also on record: Kinase selectivity panel, IC50 of AC484 (Supplementary Table 1).
The target of test [18] is T5, IKKE (Homo sapiens, UniProt Q14164).
T5 construct: gene IKBKE
Briefly: biochemical. The arrangement: Kinase selectivity panel, IC50 of AC484 (Supplementary Table 1).

Test [19] has as its target CAMKK2 (Homo sapiens, UniProt Q96RR4). Briefly: biochemical. The arrangement: Kinase selectivity panel, IC50 of AC484 (Supplementary Table 1).
Test [20] concerns the target T6, Aurora 2 (Homo sapiens, UniProt O14965).
T6 construct: gene AURKA
Briefly: biochemical. Also on record: Kinase selectivity panel, IC50 of AC484 (Supplementary Table 1).

Test [21] has as its target TEC (Homo sapiens, UniProt P42680). Nature of the test: biochemical. The arrangement: Kinase selectivity panel, IC50 of AC484 (Supplementary Table 1).
The target in test [22] is T7, Aurora 1 (Homo sapiens, UniProt Q96GD4).
T7 construct: gene AURKB
Nature of the test: biochemical. The arrangement: Kinase selectivity panel, IC50 of AC484 (Supplementary Table 1).

SMILES strings stand for the structures. Where only a bound is given, the exact number is not on record here.

Chain of STK33 (Q9BYT3 whole entry): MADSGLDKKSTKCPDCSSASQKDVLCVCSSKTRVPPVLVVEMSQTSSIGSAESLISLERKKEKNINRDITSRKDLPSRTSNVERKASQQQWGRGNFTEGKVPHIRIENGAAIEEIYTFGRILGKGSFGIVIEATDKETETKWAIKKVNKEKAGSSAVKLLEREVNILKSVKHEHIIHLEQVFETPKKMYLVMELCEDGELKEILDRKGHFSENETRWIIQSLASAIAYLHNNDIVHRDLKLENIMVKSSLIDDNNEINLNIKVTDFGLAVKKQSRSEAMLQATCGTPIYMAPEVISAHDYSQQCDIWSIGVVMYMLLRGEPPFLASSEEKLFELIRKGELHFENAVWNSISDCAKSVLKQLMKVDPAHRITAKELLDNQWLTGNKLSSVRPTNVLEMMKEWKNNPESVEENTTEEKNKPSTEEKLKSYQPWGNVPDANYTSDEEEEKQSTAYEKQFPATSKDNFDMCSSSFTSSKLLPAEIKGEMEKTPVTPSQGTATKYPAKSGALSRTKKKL
Chain of Blk (P51451 whole entry): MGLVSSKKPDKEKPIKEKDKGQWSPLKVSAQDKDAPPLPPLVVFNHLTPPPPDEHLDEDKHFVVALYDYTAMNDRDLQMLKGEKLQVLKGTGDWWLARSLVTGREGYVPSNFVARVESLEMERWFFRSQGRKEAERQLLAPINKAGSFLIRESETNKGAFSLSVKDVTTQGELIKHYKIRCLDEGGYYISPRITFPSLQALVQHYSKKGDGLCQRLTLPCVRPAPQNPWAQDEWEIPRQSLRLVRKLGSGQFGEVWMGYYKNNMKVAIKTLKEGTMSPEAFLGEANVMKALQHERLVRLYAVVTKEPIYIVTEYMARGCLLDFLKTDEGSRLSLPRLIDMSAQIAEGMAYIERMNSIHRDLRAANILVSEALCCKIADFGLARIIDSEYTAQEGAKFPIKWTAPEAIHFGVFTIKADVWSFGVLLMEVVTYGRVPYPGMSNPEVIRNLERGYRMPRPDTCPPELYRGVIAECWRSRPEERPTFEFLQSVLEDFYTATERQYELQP
Chain of TEC (P42680 whole entry): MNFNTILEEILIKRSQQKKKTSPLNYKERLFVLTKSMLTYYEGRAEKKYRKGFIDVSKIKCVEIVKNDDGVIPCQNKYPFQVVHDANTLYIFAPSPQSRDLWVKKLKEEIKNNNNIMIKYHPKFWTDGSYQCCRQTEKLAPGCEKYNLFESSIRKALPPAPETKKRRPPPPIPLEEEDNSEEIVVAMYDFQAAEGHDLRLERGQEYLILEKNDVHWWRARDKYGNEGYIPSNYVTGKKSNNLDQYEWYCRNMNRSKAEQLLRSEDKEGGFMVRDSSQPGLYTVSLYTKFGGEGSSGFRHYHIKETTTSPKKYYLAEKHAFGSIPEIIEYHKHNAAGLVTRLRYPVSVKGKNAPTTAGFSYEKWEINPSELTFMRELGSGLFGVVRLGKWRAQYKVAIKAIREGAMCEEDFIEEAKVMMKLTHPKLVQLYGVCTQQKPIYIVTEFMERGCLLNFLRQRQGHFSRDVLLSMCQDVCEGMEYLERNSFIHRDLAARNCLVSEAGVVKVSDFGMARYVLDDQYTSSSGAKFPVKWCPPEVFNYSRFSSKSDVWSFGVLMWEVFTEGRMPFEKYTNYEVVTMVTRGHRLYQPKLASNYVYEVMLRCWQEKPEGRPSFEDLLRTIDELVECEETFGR
Chain of Gsk3b (P49841 whole entry): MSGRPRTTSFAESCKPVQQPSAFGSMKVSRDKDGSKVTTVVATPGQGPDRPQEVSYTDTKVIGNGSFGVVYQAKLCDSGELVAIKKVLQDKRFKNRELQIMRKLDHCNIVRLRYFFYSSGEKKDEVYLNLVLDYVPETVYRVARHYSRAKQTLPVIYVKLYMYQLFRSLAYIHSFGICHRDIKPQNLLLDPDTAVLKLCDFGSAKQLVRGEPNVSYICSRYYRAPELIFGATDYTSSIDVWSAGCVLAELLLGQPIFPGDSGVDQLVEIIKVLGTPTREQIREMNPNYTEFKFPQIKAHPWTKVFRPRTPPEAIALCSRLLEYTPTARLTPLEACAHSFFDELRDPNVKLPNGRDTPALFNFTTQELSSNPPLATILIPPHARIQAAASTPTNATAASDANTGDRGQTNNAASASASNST
Chain of Wee1 (P30291 whole entry): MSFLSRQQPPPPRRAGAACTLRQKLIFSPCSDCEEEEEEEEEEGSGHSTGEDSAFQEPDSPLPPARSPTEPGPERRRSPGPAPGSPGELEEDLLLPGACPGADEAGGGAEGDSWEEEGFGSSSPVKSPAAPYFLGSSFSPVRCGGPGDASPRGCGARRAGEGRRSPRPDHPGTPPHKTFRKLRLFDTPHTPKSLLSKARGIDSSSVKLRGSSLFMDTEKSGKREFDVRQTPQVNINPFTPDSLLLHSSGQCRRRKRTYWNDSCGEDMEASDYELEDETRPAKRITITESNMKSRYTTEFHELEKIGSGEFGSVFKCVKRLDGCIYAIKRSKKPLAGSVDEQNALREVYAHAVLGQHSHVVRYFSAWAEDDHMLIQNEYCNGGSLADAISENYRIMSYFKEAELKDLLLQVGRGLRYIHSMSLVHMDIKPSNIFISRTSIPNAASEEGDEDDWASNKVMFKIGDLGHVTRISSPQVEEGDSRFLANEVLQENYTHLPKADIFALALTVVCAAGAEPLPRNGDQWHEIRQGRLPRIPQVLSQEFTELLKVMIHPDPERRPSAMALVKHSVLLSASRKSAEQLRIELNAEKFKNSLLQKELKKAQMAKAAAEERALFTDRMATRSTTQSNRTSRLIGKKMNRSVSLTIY
Chain of TBK1 (Q9UHD2 whole entry): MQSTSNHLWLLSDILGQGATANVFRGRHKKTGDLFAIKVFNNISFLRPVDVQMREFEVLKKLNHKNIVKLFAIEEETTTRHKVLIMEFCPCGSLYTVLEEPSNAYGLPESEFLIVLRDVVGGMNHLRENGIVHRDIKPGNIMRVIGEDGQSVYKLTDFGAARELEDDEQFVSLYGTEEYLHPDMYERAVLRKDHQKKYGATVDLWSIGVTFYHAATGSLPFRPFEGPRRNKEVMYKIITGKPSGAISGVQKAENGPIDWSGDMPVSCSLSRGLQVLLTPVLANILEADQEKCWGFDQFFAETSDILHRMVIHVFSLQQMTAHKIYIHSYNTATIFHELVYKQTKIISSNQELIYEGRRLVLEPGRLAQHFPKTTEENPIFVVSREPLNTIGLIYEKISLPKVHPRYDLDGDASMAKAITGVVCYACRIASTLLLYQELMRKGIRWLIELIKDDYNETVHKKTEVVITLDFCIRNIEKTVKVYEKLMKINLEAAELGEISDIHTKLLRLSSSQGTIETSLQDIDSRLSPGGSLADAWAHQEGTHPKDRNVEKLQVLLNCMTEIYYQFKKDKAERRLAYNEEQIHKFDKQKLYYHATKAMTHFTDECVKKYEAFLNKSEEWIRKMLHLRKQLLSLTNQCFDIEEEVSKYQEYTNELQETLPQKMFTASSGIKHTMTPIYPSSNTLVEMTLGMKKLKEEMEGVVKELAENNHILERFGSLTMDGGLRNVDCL
T2 sequence (P00519 whole entry): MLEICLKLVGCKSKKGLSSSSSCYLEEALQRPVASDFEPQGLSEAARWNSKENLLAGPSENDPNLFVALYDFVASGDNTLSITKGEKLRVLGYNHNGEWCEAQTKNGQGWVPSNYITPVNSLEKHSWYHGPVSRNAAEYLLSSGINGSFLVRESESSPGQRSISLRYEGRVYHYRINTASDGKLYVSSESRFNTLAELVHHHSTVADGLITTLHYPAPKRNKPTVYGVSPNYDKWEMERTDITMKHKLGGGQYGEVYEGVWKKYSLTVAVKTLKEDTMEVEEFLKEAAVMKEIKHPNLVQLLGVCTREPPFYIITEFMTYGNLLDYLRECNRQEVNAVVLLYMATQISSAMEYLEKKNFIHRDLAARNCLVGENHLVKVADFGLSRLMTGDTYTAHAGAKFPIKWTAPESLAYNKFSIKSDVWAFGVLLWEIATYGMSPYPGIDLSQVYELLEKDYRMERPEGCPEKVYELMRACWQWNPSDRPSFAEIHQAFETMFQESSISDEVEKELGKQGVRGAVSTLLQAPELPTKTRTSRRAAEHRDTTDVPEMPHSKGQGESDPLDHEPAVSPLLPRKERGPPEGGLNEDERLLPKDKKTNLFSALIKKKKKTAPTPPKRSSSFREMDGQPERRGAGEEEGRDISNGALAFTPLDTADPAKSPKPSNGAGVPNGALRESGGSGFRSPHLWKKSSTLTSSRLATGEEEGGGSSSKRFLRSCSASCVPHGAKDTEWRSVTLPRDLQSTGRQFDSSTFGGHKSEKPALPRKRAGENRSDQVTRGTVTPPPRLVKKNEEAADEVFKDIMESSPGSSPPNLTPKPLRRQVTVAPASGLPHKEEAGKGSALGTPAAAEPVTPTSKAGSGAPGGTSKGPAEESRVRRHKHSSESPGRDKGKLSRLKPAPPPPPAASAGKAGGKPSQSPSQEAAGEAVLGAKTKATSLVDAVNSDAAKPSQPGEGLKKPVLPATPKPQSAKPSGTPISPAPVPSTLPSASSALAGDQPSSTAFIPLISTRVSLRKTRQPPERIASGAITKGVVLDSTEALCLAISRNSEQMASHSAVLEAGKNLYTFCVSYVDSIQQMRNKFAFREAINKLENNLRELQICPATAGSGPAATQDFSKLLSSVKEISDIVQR
T7 sequence (Q96GD4 whole entry): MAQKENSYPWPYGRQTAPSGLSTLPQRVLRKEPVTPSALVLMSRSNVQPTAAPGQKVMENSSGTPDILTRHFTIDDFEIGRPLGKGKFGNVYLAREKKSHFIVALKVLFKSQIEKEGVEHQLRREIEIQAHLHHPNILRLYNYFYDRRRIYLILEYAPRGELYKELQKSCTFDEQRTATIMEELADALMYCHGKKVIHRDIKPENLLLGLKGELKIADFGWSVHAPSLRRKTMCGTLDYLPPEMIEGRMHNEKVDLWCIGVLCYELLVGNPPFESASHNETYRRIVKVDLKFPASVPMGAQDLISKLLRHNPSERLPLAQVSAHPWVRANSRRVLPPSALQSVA

What is called IC50 is the concentration that inhibits the measured activity by half. On to `CC(C)CCN[C@@H]1CCc2cc(O)c(N3CC(=O)NS3(=O)=O)c(F)c2C1` [AC484, ABBV-CLS-484], for which the IC50 in test [1], in test [2], in [3], in test [4], in test [5] and in test [6] was greater than 10 µM each time. Moreover, the IC50 in [7] is greater than 10 µM; in [8], greater than 10 µM; in test [9], greater than 10 µM; in test [10], 0.0018 µM; in [11] it was greater than 10 µM; in [12], greater than 10 µM. For the same compound, the IC50 in test [13], in test [14], in test [15], in [16], in test [17] and in test [18] was greater than 10 µM throughout. Further, the IC50 in test [19], in test [20], in [21] and in [22] was greater than 10 µM each time.
